Patent US12708659B2, “Polyphenolic insulin” (KIMBALL WESTWARD LLC, priority 2020, dated 2026)

Columns and labels:
insulin = insulin (Homo sapiens, UniProt P01308); details: does not require zinc ions; read-out: dissociation constant Kd of dimerization; cited from earlier work
[1] = Preservation of quercetin-containing insulin hexameric complexes by small phenolic compounds; format: physicochemical; details: as small phenolic compound

Sequence of insulin (P01308 25-54 limits assumed): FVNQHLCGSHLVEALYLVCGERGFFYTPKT
Sequence of insulin (P01308 90-110 limits assumed): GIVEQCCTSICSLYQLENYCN

| Compound | Kd (insulin) [µM] | preservation of insulin hexameric complexes that contained quercetin [1] |
| --- | --- | --- |
| insulin: anabolic hormone of A-chain and B-chain linked by disulfide bonds | ~10 | – |
| O=C(O)c1ccc(O)cc1 [4-hydroxybenzoic acid] | – | better preserve insulin hexameric complexes |
| O=C([O-])c1ccccc1.[Na+] [sodium benzoate] | – | better preserve insulin hexameric complexes |
